The source of these data is US8563472B2 (priority 2010, dated 2013).

For data set [1], the system named is Leptosphaeria nodorum (LEPTNO). As to the kind of experiment: In vitro fungitoxicity assay against Leptosphaeria nodorum in copper-minus / copper-plus liquid medium. It is filed as cell-based. To be noted: test compound 0.05 μg/mL, 25° C., 72 h; for inhibition of growth at 0.05 µg/mL: Parastagonospora nodorum, copper-minus medium, growth by light scattering, read-out: LEPTNO % Inhn. Minus Copper Observed; for LEPTNO % Inhn. Plus Copper Observed: copper-plus medium (CuCl2.2H2O). The protocol: In vitro fungitoxicity assays against Leptosphaeria nodorum (LEPTNO) were conducted using the liquid growth medium described by Coursen and Sisler (American Journal of Botany 1960, 47, 541-549) except that copper micronutrient, normally included as CuSO4, was omitted. The medium, termed “copper-minus”, was prepared by dissolving 10 g glucose, 1.5 g K2HPO4, 2 g KH2PO4 and 1 g (NH4)2SO4 in 1 liter of deionized water and treating the solution with 0.5 g Chelex 100 resin (Bio-Rad Analytical grade, 50-100 mesh, sodium form, cat#142-2822) by stirring at room temperature for 1 h. MgSO4.7H2O (0.5 g) was added, and stirring was continued for a further hour. Trace elements (minus CuSO4), and vitamins described by Coursen and Sisler were added from concentrated stock solutions and the entire medium was sterilized by filtration. Medium containing copper was prepared by adding CuCl2.2H2O to the copper-minus medium at 20 μM. […] Copper-minus medium (100 μL) was added to one of the wells and copper-plus medium to the second well. Control wells, included for each medium, received 1 μL DMSO and 100 μL of medium.
LEPTNO was grown on potato dextrose agar in 9 cm diameter petri dishes for 7 days (d). Sterile deionized water (20 mL) was added to a culture plate and spores suspended by scraping the surface gently with a sterile plastic loop. The resulting suspension was filtered through a double layer of sterile cheesecloth. […] The spores were resuspended in copper-minus medium, and the suspension adjusted to 2×10^5 spores per mL. Microtiter plates were inoculated with 100 μL of this spore suspension and the plates incubated at 25° C. for 72 h before assessing fungal growth by measuring light scattering in a NepheloStar plate reader. Growth inhibition was determined by comparing growth in the presence of test compound with growth in control wells lacking test compound.

A further data set deals with Phytophthora infestans. The class given is in vivo. To be noted: hydrazone 50 ppm with 50 μM CuCl2.2H2O, applied 24 h before inoculation, tomato plants, assessed 7 d after inoculation.

What is called melting point is the temperature, or range, at which the solid turns liquid. Regarding `Cc1cc(C(=O)N/N=C/c2cc(Cl)cc(Cl)c2O)cs1` [Compound 27], the melting point was 189 to 191 °C. In data set [1], the inhibition of growth at 0.05 µg/mL came out at 5.4% and the “LEPTNO % Inhn. Plus Copper Observed” value is given as 97.3%. The TLB % control in the data set on Phytophthora infestans is 78%.
The matching figures for `C/C(=N\NC(=O)c1cn(-c2ccccc2)nc1O)c1ccccc1O` [Compound 36]: 276 to 277 °C, 9.2%, 92.5% and 66%.
The matching figures for `C/C(=N\NC(=O)c1cc(C)nc2ccc(Br)cc12)c1ccccc1O` [Compound 2]: 251 to 254 °C, 0%, 83.4% and 36%.
The matching figures for `Cn1cc(C(=O)N/N=C/c2cc(Cl)cc(Cl)c2O)c2ccccc21` [Compound 15]: 215 to 217 °C, 16.3%, 98.1% and 12%.
`C/C(=N\NC(=O)c1cn(-c2ccccc2)nc1O)c1cc(Cl)cc(Cl)c1O` [Compound 42] displayed a melting point of 269 to 271 °C. In data set [1], the inhibition of growth at 0.05 µg/mL was found to be 3.5% and the “LEPTNO % Inhn. Plus Copper Observed” value worked out at 91.2%. This compound returned a TLB % control in the data set with Phytophthora infestans of 2%.
`Cc1occc1C(=O)N/N=C/c1cc(Br)cc(Br)c1O` [Compound 33] gave a melting point of 270 to 272 °C. Moreover, in data set [1], the inhibition of growth at 0.05 µg/mL is 9.1% and the “LEPTNO % Inhn. Plus Copper Observed” value came out at 97.8%. In the data set with Phytophthora infestans, this compound gave a TLB % control of 66%.
The matching figures for `Cc1cc(C(=O)N/N=C/c2ccccc2O)c2cc(Br)ccc2n1` [Compound 3]: 270 to 275 °C, 0%, 72.9% and 25%.
The matching figures for `Cc1c(C(=O)N/N=C/c2ccccc2O)[nH]c2c([N+](=O)[O-])cccc12` [Compound 4]: 296 to 299 °C, 11.3%, 91.4% and 4%.
The matching figures for `C/C(=N\NC(=O)c1ccc(Cl)s1)c1ccccc1O` [Compound 38]: 204 to 205 °C, 0%, 98% and 56%.
The compound `C/C(=N\NC(=O)c1ccoc1C)c1cc(Cl)cc(Cl)c1O` [Compound 46] returned a melting point of 212 to 215 °C. In addition, in data set [1], the inhibition of growth at 0.05 µg/mL is 0% and the “LEPTNO % Inhn. Plus Copper Observed” value was determined as 97.2%. Also, the TLB % control in the data set with Phytophthora infestans is recorded as 69%.
The matching figures for `C/C(=N\NC(=O)c1cnn(-c2ccc(Cl)cc2)c1C(F)(F)F)c1ccccc1O` [Compound 35]: 201 to 202 °C, 4.3%, 94.8% and 59%.
The matching figures for `C/C(=N\NC(=O)c1ccsc1)c1cc(Br)cc(Br)c1O` [Compound 53]: 251 to 253 °C, 7.6%, 97.6% and 73%.
For the compound `Cc1cc(C(=O)N/N=C/c2cc(Br)cc(Br)c2O)cs1` [Compound 32], the melting point is 203 to 205 °C. Moreover, in data set [1], the inhibition of growth at 0.05 µg/mL was found to be 0% and the “LEPTNO % Inhn. Plus Copper Observed” value is on record as 97.6%. Further, the TLB % control in the data set with Phytophthora infestans worked out at 69%.
The matching figures for `C/C(=N\NC(=O)c1sc(C)nc1C)c1ccccc1O` [Compound 37]: 202 to 204 °C, 0%, 94.2% and 81%.
The matching figures for `O=C(N/N=C/c1ccccc1O)c1snnc1-c1ccccc1` [Compound 22]: 191 to 192 °C, 9.6%, 77.9% and 56%.
The matching figures for `C/C(=N\NC(=O)c1sc(C)nc1C)c1cc(Cl)cc(Cl)c1O` [Compound 43]: 208 to 209 °C, 0%, 94.3% and 66%.
In the case of `C/C(=N\NC(=O)c1csc(C)c1)c1ccccc1O` [Compound 39], the melting point lay in the range of 158 to 160 °C. For the same compound, in data set [1], the inhibition of growth at 0.05 µg/mL worked out at 0% and the “LEPTNO % Inhn. Plus Copper Observed” value is reported as 97.3%. Further, in the data set on Phytophthora infestans, the TLB % control is on record as 66%.
The matching figures for `Cc1cc(C(=O)N/N=C/c2cc(Cl)cc(Cl)c2O)c2cc(Br)ccc2n1` [Compound 1]: 265 to 267 °C, 2.5%, 73.8% and 7%.
`O=C(N/N=C/c1cc(Cl)cc(Cl)c1O)c1cnn(-c2ccc(Cl)cc2)c1C(F)(F)F` [Compound 17] showed a melting point of 216 to 217 °C. In addition, in data set [1], the inhibition of growth at 0.05 µg/mL came to 15.8% and the “LEPTNO % Inhn. Plus Copper Observed” value is on record as 92.6%. Moreover, the TLB % control with Phytophthora infestans is on record as 69%.
The matching figures for `Cc1cc(C(=O)N/N=C/c2ccccc2O)cs1` [Compound 24]: 180 to 182 °C, 2.9%, 94.8% and 56%.
In the case of `O=C(N/N=C/c1cc(Br)cc(Br)c1O)c1cnn(-c2ccc(Cl)cc2)c1C(F)(F)F` [Compound 29], the melting point fell in the range of 237 to 238 °C. In addition, in data set [1], the inhibition of growth at 0.05 µg/mL is 7.8% and the “LEPTNO % Inhn. Plus Copper Observed” value turned out to be 57.6%. Besides, the TLB % control in the data set on Phytophthora infestans was 47%.
`C/C(=N\NC(=O)c1ccsc1)c1cc(Cl)cc(Cl)c1O` [Compound 47] came in with a melting point of 230 to 232 °C. Moreover, in data set [1], the inhibition of growth at 0.05 µg/mL was 0% and the “LEPTNO % Inhn. Plus Copper Observed” value turned out to be 98.1%. The TLB % control with Phytophthora infestans is listed as 81%.
